Experimental data: patent US5254569A, “(Amidomethyl)nitrogen heterocyclic analgesics” (The Du Pont Merck Pharmaceutical Company, priority 1991, dated 1993)
Where a name gives a salt, the structure may show the parent alone. Read-outs that look alike come from different tables or passages of the source.

Tests used:
[1] = phenylquinone writhing test (PQW), analgesic activity in mice; assay type: in vivo, male white mice (CFl); settings: for ED50: Mus musculus
[2] = target: mu opioid receptor; assay: opioid receptor binding, mu ([3H]naloxone); design: species or system guinea pig (method, b1124); rat (Table 4 title)
[3] = target: T1, kappa opioid receptor (Cavia porcellus, UniProt P41144); assay: opioid receptor binding, kappa ((-)-[3H]ethylketocycloazocine); design: species or system guinea pig (method, b1124); rat (Table 4 title)
T1 construct: Whole brains were homogenized (20 sec) in 10 vol (wt/vol) of ice-cold 0.34 M sucrose; tissue Charles River (animals); host or cells: guinea pig whole-brain membranes
T1 sequence (P41144 whole entry): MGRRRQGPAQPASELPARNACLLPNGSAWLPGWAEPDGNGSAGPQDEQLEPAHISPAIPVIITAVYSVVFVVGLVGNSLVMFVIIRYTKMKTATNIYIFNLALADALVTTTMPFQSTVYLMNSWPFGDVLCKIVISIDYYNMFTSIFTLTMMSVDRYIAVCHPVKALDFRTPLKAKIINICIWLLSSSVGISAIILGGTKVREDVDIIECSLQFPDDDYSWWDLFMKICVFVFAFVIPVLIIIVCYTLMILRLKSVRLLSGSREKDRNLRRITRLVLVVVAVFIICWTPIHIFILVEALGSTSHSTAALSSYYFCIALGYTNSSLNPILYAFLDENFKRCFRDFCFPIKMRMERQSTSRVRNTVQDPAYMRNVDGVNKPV

[4] = mouse, in vivo; cited from earlier work
[5] = 0.5 nM [3H]naloxone, brain membranes, apparent Ki

Compound	ED50 ([1]; po) [mg/kg]	ED50 ([1]; sc) [mg/kg]	Ki [2, 5] [nM]	Ki [2] [nM]	also measured
CN1CCCC[C@H]1[C@H](c1ccccc1)N(C)C(=O)COc1ccc(Cl)c(Cl)c1 [Example 110]	0.89	0.078	8	–	–
CN1CCCCC1C(c1ccccc1)N(C)C(=O)Cc1c(F)c(F)c(F)c(F)c1F (stereo not shown) [Example 10]	47	16	–	3200	–
COc1cccc([C@@H]([C@@H]2CCCCN2C)N(C)C(=O)COc2ccc(Cl)c(Cl)c2)c1 [Example 140]	5.2	0.29	–	104	–
CCN(C(=O)Cc1ccc(Cl)c(Cl)c1)C(c1ccccc1)C1CCCCN1C (stereo not shown) [Example 11]	38	–	–	660	MOUSE PQW ED50 ([1]; s.c.): 30.0 mg/kg
CN1CCCC[C@H]1[C@H](c1cccc(O)c1)N(C)C(=O)Cc1ccc(Cl)c(Cl)c1 [Example 122]	47	36	–	209	–
CN1CCCC[C@@H]1[C@@H](c1ccccc1)N(C)C(=O)Cc1ccc(Cl)c(Cl)c1 [Example 107]	30	13	–	253	–
CN1CCCC[C@H]1[C@H](c1cccc(O)c1)N(C)C(=O)COc1ccc(Cl)c(Cl)c1 [Example 144]	16	4.2	27	–	–
CN1CCCCC1C(c1ccccc1)N(C)C(=O)COc1ccc(Cl)c(Cl)c1 (stereo not shown) [Example 14]	1.2	0.11	58	–	–
CN1CCCCC1C(Cc1ccccc1)N(C)C(=O)Cc1ccc(Cl)c(Cl)c1 (stereo not shown) [Example 47]	> 81	> 81	2560	–	Ki [3]: 3990 nM
CN1CCCCC1C(c1ccc(O)cc1)N(C)C(=O)Cc1ccc(Cl)c(Cl)c1 (stereo not shown) [Example 8]	> 81	> 81	11400	–	Ki [3]: 2590 nM
CN1CCCC[C@H]1[C@H](c1ccccc1)N(C)C(=O)Cc1ccc(Cl)c(Cl)c1 [Example 106, (+)-[2S-(R*,R*)]-(3,4-dichlorophenyl)-N-methyl-N-[1-(1-methyl-2-piperidinyl)phenylmethyl]acetamide hydrochloride]	8.1	0.37	–	414	–
CN1CCCCC1C(c1ccccc1)N(C)C(=O)Cc1ccc(Cl)c(Cl)c1 (stereo not shown) [Example 9]	–	–	–	322	MOUSE PQW ED50 ([1]; p.o.): 16. mg/kg; MOUSE PQW ED50 ([1]; s.c.): 0.72 mg/kg
CN1CCCC[C@H]1[C@@H](c1ccccc1)N(C)C(=O)COc1ccc(Cl)c(Cl)c1 [Example 113]	> 81	67	–	> 10000	–
CN(C(=O)Cc1ccc(Cl)c(Cl)c1)[C@@H](c1ccccc1)[C@@H]1CCCCN1CC1CC1 [Example 179]	10	> 81	604	–	Ki [3]: 397 nM
CN1CCCCC1C(c1ccccc1)N(C)C(=O)Cc1ccc(Cl)c(Cl)c1 (stereo not shown) [Example 2, benzeneacetamide, 3,4-dichloro-N-methyl-N-[1-(1-methyl-2-piperidinyl)phenyl-methyl], hydrochloride]	10	–	–	–	MOUSE PQW ED50 ([1]; s.c., hydrochloride): 1.7 mg/kg; Ki ([2]; hydrochloride): 270 nM
C=CCN1CCCC[C@H]1[C@H](c1ccccc1)N(C)C(=O)Cc1ccc(Cl)c(Cl)c1 [Example 180]	24	> 81	–	530	–

Compound	ED50 ([1]; po) [mg/kg]	ED50 ([1]; sc) [mg/kg]	Ki [2, 5] [nM]	Ki [2] [nM]	also measured
CN1CCCCC1C(c1cccc(O)c1)N(C)C(=O)Cc1ccc(Cl)c(Cl)c1 (stereo not shown) [Example 6, benzeneacetamide,3,4-dichloro-N-[1-(3-hydroxyphenyl)-1-(1-methyl-2-piperidinyl)methyl]-N-methyl-, hydrobromide]	> 81	18	–	438	–
COc1ccc(C(C2CCCCN2C)N(C)C(=O)Cc2ccc(Cl)c(Cl)c2)cc1 (stereo not shown) [Example 7, Benzeneacetamide, 3,4-dichloro-N-((1-(4-methoxyphenyl)-1-(1-methyl-2-piperidinylmethyl))-N-methyl-, hydrochloride]	> 81	> 81	5670	–	Ki [3]: 4590 nM
CN1CCCC[C@H]1[C@H](c1ccccc1)N(C)C(=O)Cc1cccc2occc12 [Example 114]	8.1	0.57	–	250	–
CCN(C(=O)Cc1ccc(Cl)c(Cl)c1)C(c1ccccc1)C1CCCCN1C (stereo not shown) [Example 12]	–	–	–	3320	MOUSE PQW ED50 ([1]; p.o.): 24. mg/kg; MOUSE PQW ED50 ([1]; s.c.): 1.7 mg/kg
CN1CCCCC1C(c1ccccc1)N(C)C(=O)Cc1ccc(Cl)cc1Cl (stereo not shown) [Example 13]	24	8.1	–	625	–
CN1CCCC[C@@H]1[C@@H](c1ccccc1)N(C)C(=O)COc1ccc(Cl)c(Cl)c1 [Example 111]	19	1.3	–	195	–
CN1CCCC[C@H]1[C@H](c1ccc(F)cc1)N(C)C(=O)Cc1ccc(Cl)c(Cl)c1 [Example 118]	19	1.7	–	1060	–
COc1cccc([C@@H]([C@@H]2CCCCN2C)N(C)C(=O)Cc2ccc(Cl)c(Cl)c2)c1 [Example 120]	19	1.6	–	633	–
COc1cccc(C(C2CCCCN2C)N(C)C(=O)Cc2ccc(Cl)c(Cl)c2)c1 (stereo not shown) [Example 5, benzeneacetamide,3,4-dichloro-N-[1-(3-methoxyphenyl)-1-(1-methyl-2-piperidinyl)methyl]-N-methyl-, hydrochloride]	38	1.3	–	3470	–
CN1CCCC[C@H]1[C@H](c1ccc(F)cc1)N(C)C(=O)COc1ccc(Cl)c(Cl)c1 [Example 136]	1.7	0.24	54	–	–
CN(C(=O)Cc1ccc(Cl)c(Cl)c1)C(c1ccccc1)C1CCCCN1CC1CC1 (stereo not shown) [Example 3]	47	> 81	957	–	Ki [3]: 530 nM
CC(C1CCCCN1C)N(C)C(=O)Cc1ccc(Cl)c(Cl)c1 (stereo not shown) [Example 4, benzeneacetamide,3,4-dichloro-N-methyl-N-[1-(1-methyl-2-piperidinyl)ethyl]-, hydrochloride]	> 81	67	28500	–	Ki [3]: 1280 nM
CN1CCCC[C@H]1[C@@H](c1ccccc1)N(C)C(=O)Cc1ccc(Cl)c(Cl)c1 [Example 109]	> 81	> 81	–	3860	–
CN1CCCC[C@@H]1[C@H](c1ccccc1)N(C)C(=O)COc1ccc(Cl)c(Cl)c1 [Example 112]	> 81	12	–	4620	–
CN1CC[C@]23c4c5ccc(O)c4O[C@H]2[C@@H](O)C=C[C@H]3[C@H]1C5 [Morphine]	–	–	–	–	sedation in mice [4]: do not produce sedation
